# Reference: paper PMC10200060, “Inhibition of DAMP actions in the tumoral microenvironment using lactoferrin-glycyrrhizin conjugate for glioblastoma therapy” (Biomaterials Research, 2023)
# Tests used:
# [1] = test system: orthotopic GBM (U87MG) mice model; experiment: Nissl staining: GBM/normal brain ratio; type: in vivo, Balb/c nude mice; conditions: daily i.v. GL equivalent 50 mg kg^−1, 14 days (control 37.5 ± 2.3)
# Source text: After two weeks, mice were sacrificed, and the brains were harvested and fixed with paraformaldehyde (4%). Then, tissue processing was automatically conducted using a Leica TP1020 semi-enclosed Benchtop Tissue Processor (Leica Biosystems, Wetzlar, Hesse, Germany), followed by embedding in paraffin blocks. Paraffin blocks were sliced into 5 μm thick slices using a Leica RM2145 Microtome (Leica Biosystems). Nissl staining was used to stain brain tissue slides with pre-warmed 0.1% Cresyl Violet Stain Solution (Abcam). TUNEL assays were conducted following the manufacturer’s instructions. For immunofluorescence staining; anti-HMGB1 antibody (Abcam), anti-Ki67 antibody (Abcam), anti-CD31 antibody (Abcam), and anti-VEGF antibody (Abcam) were used as primary antibodies, and goat anti-rabbit IgG-H&L Alexa Fluor 488 and goat anti-rabbit IgG H&L Alexa Fluor 647 were used as secondary antibodies, followed by DAPI mounting.
# HMGB1 = HMGB1 ELISA of U87MG culture medium; type: cell-based, human; conditions: 50 μM GL equivalent, 48 h (control 131.8 ± 11.4)
# Description: U87MG cells were seeded in 100 mm-cell culture dishes (2.2 × 10^6 cells per dish) and treated with GL, Lf, or Lf-GL (50 × 10^–6 M GL equivalent concentration) for 48 h. After incubating, cells were collected using a cell scrapper and were centrifuged for 3 min at 150 × g. Supernatant was collected as cell culture medium, and pellets were washed with cold PBS twice and transferred into a microcentrifuge tube. Tubes were centrifuged, and then pellets were resuspended in 500 μL 1X hypotonic buffer and incubated on ice. Then, 25 μL of NP40 was added and the mixture was agitated using a vortex mixer at the highest setting. Homogenates were centrifuged for 10 min at 842 × g at 4℃. Supernatant was collected as the cytoplasmic fraction, and pellets were resuspended in cell extraction buffer (50 μL) and were incubated for 30 min on ice with vortexing at 10 min intervals. Then, homogenates were centrifuged for 30 min at 14,000 × g at 4℃. Supernatant was collected as the nuclear fraction. The amount of HMGB1 in the samples was measured using a HMGB1 ELISA kit (Abbkine), and absorbance was measured at 450 nm in a micro-plate reader. A DNA assay (Quant-iT™ dsDNA Assay Kit, Invitrogen) was also conducted to express HMGB1 concentrations in equivalent amounts of DNA.
# [2] = GBM targeted-GL by HPLC in brain homogenate; type: in vivo, orthotopic GBM model mice; conditions: Balb/c nude, mouse, brain homogenate, iv; orthotopic GBM mice, i.v. GL equivalent 50 mg kg^−1, 10 min after injection; read-out: GL concentration detected in brain homogenate
# Description: Orthotopic GBM mice model mice were used for quantification of GBM targeting efficacy. The brain tissue was homogenized in deionized water at a 33.3 w/v (%) using a FastPrep-24 5G (MP biomedical, South Korea). The GL were added to pooled brain homogenate to obtain seven-point calibration curves with a range of 10–1000 ng mL^−1. Then, homogenate (50 μL) was mixed with methanol (100 μL). […] Thereafter, supernatants (100 μL) were mixed with mobile phase solution (900 μL), then filtered with a 0.22 μm syringe filter. Samples were collected in a 2 mL HPLC vial (Screw top vial, Waters, USA) and analyzed by HPLC at 254 nm. […] Mice were sacrificed and brain tissues were collected 10 min after the GL and Lf-GL injection. The samples for quantification were also conducted using the same process as GL standard preparation.
# HMGB1 box B = target: HMGB1 box B; set-up: method as in PMID 17462578; conditions: previously reported; cited from earlier work
# [3] = In vivo fluorescence tracer image (brain); set-up: species or system Balb/c mice; conditions: FITC-tagged
# Description: For the fluorescence tracer images, Balb/c mice were administered either FITC-tagged GL or FITC-tagged Lf-GL at a GL equivalent concentration of 50 mg kg^−1 body weight via tail vein injection. After 1, 10, 30, and 60 min, the experimental mice were sacrificed, and the organs were extracted. The fluorescence signals of FITC-tagged GL or FITC-tagged Lf-GL in organs were imaged using an in vivo imaging system (FOBI, CELLGENTEK, South Korea). The exposure time was fixed to 200 s for analyzing fluorescent signals from tissues. The quantified fluorescence signal of the brain at each time point was measured in terms of intensity units (IU, Intensity Min^−1 Gain^−1).
# Fig. S15. Fluorescence tracer images of intravenously injected GL and Lf-GL. Balb/c mice were administered either FITC-tagged GL or FITC-tagged Lf-GL at a GL equivalent concentration of 50 mg kg^-1 body weight via tail vein injection. The fluorescence signals of FITC-tagged GL or FITC-tagged Lf-GL in organs were imaged using an in vivo imaging system (FOBI, CELLGENTEK, South Korea). The exposure time was fixed to 200 sec for analyzing fluorescent signals from tissues. The quantified fluorescence signal of brain at each time point was measured with Intensity Unit (IU, Intensity Min^-1 Gain^-1).
# [4] = test system: U87MG human glioma cell line; experiment: Cell viability test (CCK-8) in U87MG; type: cell-based; conditions: 50 μM GL equivalent, after 48 h treatment
# Description: Cell viability was determined using a cell counting kit-8 (CCK-8). U87MG and HUVECs (seeding density: 0.75 × 10^4 cells per well) in 96-well culture plates were treated with GL, Lf, or Lf-GL (25 to 200 × 10^–6 M of GL equivalent concentration) and were incubated for different periods of time (24, 48, and 72 h). After washing with PBS, they were treated with a cell culture medium containing a CCK-8 assay kit (Abbkine) and were incubated at 37 °C and 5% CO2 for 2 h. Then, absorbance was measured at 450 nm in a micro-plate reader (VLBL00D0, Thermo Fisher Scientific). Results were quantified using Sigma Plot (Systat Software, USA). To determine the effect of extracellular HMGB1 in GBM and endothelial cell proliferation, U87MG and HUVECs were seeded in 96-well culture plates (seeding density: 0.75 × 10^4 cells per well) and GL, Lf, or Lf-GL (50 × 10^–6 M GL equivalent concentration) were added to cells with or without HMGB1 protein (U87MG: 0.1 μg mL^−1, and HUVEC: 1 μg mL^−1). Cells were incubated for different periods of time (24, 48, and 72 h).
smiles,measurement,setting,value
"CC1(C)[C@@H](O[C@H]2O[C@H](C(=O)O)[C@@H](O)[C@H](O)[C@H]2O[C@@H]2O[C@H](C(=O)O)[C@@H](O)[C@H](O)[C@H]2O)CC[C@]2(C)[C@H]3C(=O)C=C4[C@@H]5C[C@@](C)(C(=O)O)CC[C@]5(C)CC[C@@]4(C)[C@]3(C)CC[C@@H]12 [GL, Glycyrrhizin]",GBM/normal brain ratio,[1],26.4 ± 5.7
same,HMGB1 released into the medium of U87MG cells,HMGB1,80.7 ± 4.5 ng/mL
same,concentration at 10 min,[2],9800 ± 2300 ng/mL
same,Kd,HMGB1 box B,140 ± 3 µM
same,Time up to which fluorescence signal was detected in the brain,[3]; i.v. GL equivalent 50 mg kg^−1,≤ 10 min
same,Fluorescence intensity in the brain,"[3]; i.v. GL equivalent 50 mg kg^−1, 10 min after injection","7,914 I.U."
same,"Number of cells, % of the original count",[4],93.4 ± 4.8%
